The values that follow are results of earlier work, collected in patent US20050287205A1, “Dietary supplement compositions” (priority 2004, published 2005).

Data set [1] has as its system liver and skeletal muscle glycogen. The note with it: acetic acid administration to mammals; promotes recovery from fatigue.
For data set [2] the following is noted: with water, ethyl alcohol, and diethyl ether.
Data set [3] has as its system spontaneously hypertensive rats.
Another data set has as its system renin. The settings on record: spontaneously hypertensive rats.

`CC(=O)O` [acetic acid]: the “glycogen repletion in liver and skeletal muscle” value in data set [1] is “enhances glycogen repletion in liver and skeletal muscle”. Further, the miscibility entry in data set [2] is on record as “miscible (mixable) in all proportions”. In addition, in data set [3], the blood pressure result is on record as “significantly reduces”. The renin activity result with renin is recorded as “significantly reduces”.
